Values quoted from earlier work as cited in US20200101029A1, “METHOD AND SYSTEM FOR PRESERVING COGNITIVE CAPACITY DURING AGING” (priority 2018, published 2020).
Where two headings read alike, the source gives them in different places.

Experiments:
[1] = 1 gram per day (500 mg twice daily)
[2] = test system: mice exposed to bleomycin
[3] = test system: genetically-engineered fly; details: spermidine feeding during all their lives
[4] = murine models
[5] = human cohort study
[6] = test system: rat model of Alzheimer's disease

## O=c1c(O)c(-c2ccc(O)c(O)c2)oc2cc(O)cc(O)c12 [quercetin]
[1]
  patients with improvement of symptoms of at least 25 percent: more than 67%
  tolerability: well tolerated

## NCCCCNCCCN [spermidine]
[2]; pre-treatment with spermidine
  accumulation of damaging protein in the mouse lung: could reduce or prevent
[2]; subsequent dosing, even at higher dose
  removal of established scar tissue in the lung: did not remove it
[3]
  aging-associated abnormal protein (excess presynaptic vesicles in olfactory neurons): prevented
  fly memory over aging: preserved over aging
[4]
  safety and tolerability of supplementation: safe and excellently tolerated
[5]
  safety and tolerability of supplementation: safe and excellently tolerated

## Bifidobacterium
[6]
  effect on memory deficit: improving memory deficit
